Data reported in ChEMBL document CHEMBL1133869, “Synthesis and biological activity of L-tyrosine-based PPARgamma agonists with reduced molecular weight” (Bioorg Med Chem Lett, 2001).
pEC50, pKi: −log10 of the molar value.

Legend:
[1] = molecular target: T1, Peroxisome proliferator-activated receptor gamma (Homo sapiens, UniProt P37231)
T1 sequence (P37231 whole entry): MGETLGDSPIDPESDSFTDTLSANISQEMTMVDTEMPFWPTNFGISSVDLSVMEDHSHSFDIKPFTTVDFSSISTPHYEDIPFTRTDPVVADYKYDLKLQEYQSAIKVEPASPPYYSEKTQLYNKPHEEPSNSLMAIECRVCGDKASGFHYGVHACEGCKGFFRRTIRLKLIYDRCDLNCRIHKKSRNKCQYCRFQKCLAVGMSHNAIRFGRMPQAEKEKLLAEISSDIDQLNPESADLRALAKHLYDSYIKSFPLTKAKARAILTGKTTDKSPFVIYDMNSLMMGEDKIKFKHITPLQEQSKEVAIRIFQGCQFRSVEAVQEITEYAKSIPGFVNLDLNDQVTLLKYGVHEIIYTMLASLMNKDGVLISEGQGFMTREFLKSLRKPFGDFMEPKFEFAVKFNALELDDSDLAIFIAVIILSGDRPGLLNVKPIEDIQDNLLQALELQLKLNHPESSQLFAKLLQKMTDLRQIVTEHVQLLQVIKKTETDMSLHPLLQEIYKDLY
Description: Maximal reporter activity against human Peroxisome proliferator activated receptor gamma Gal4 chimeric in transiently transfected CV-1 cells by functional assay.

[2] = molecular target: T1, Peroxisome proliferator-activated receptor gamma; remark: listed apart in the source
Description: Binding affinity to human Peroxisome proliferator activated receptor gamma using scintillation proximity assay

[3] = molecular target: T2, Peroxisome proliferator-activated receptor alpha (Homo sapiens, UniProt Q07869); experiment: Maximal reporter activity against human Peroxisome proliferator activated receptor alpha Gal4 chimeric in transiently transfected CV-1 cells by functional assay.; type: cell-based
T2 sequence (Q07869 whole entry): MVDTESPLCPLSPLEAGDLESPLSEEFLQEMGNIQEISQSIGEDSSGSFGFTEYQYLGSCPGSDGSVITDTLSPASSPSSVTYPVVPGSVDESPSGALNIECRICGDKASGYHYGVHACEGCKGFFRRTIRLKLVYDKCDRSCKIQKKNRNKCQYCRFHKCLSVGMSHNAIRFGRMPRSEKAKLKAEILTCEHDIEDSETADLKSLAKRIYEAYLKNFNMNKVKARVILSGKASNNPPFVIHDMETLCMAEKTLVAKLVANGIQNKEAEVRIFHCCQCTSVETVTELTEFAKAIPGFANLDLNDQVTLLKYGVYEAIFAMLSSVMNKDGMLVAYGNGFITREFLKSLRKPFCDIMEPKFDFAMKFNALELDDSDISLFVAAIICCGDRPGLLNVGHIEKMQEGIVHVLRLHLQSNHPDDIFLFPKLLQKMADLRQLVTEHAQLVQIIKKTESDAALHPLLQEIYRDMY

Rattus norvegicus [4] = experiment: In vivo efficacy expressed as reduction in fasting serum triglycerides at a dose of 10 mg/kg, oral, for 14 days in male rats; type: functional
Rattus norvegicus [5] = experiment: In vivo efficacy expressed as increase in HDL-cholesterol after at a dose of 10 mg/kg, oral, for 14 days in male rats; type: functional
[6] = molecular target: T3, Peroxisome proliferator-activated receptor delta (Homo sapiens, UniProt Q03181); experiment: Binding affinity to bind to human Peroxisome proliferator activated receptor delta using scintillation proximity assay
T3 sequence (Q03181 whole entry): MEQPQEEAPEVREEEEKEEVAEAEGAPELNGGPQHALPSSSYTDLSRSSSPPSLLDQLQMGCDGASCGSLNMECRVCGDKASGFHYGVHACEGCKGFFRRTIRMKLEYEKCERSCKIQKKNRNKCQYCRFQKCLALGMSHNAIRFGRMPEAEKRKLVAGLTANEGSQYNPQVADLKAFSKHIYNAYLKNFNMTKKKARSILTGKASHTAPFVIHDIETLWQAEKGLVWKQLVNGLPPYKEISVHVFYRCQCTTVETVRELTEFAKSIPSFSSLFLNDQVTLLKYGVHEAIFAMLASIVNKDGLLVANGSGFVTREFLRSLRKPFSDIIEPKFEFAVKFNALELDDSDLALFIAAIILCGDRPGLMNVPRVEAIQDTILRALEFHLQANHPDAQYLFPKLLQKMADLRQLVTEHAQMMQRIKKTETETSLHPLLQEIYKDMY

[7] = molecular target: T3, Peroxisome proliferator-activated receptor delta; experiment: Concentration that gave 50% of maximal reporter activity against human Peroxisome proliferator activated receptor delta Gal4 chimeric in transiently transfected CV-1 cells by functional assay.; type: cell-based
Rattus norvegicus [8] = experiment: In vivo efficacy expressed as reduction in fasting plasma glucose at a dose of 10 mg/kg, oral, for 14 days in male rats; type: functional

SMILES	pEC50 [1]	pKi [2]	further results
Cc1oc(-c2ccccc2)nc1CCOc1ccc(C[C@H](NS(C)(=O)=O)C(=O)O)cc1	5.59	6.21	–
Cc1oc(-c2ccccc2)nc1CCOc1ccc(C[C@@H](C(=O)O)n2c(C)ccc2C)cc1	6.15	6.01	–
Cc1oc(-c2ccccc2)nc1CCOc1ccc(C[C@H](Nc2ncccn2)C(=O)O)cc1	6.23	6.55	–
Cc1oc(-c2ccccc2)nc1CCOc1ccc(C[C@@H](C(=O)O)N2CCOCC2)cc1	7.62	6.80	pEC50 [3]: 5.16
Cc1oc(-c2ccccc2)nc1CCOc1ccc(C[C@@H](C(=O)O)N2CCCCC2)cc1	6.86	6.32	–
CN[C@@H](Cc1ccc(OCCc2nc(-c3ccccc3)oc2C)cc1)C(=O)O	5.30	5.68	–
CCCN[C@@H](Cc1ccc(OCCc2nc(-c3ccccc3)oc2C)cc1)C(=O)O	6.62	7.28	–
CC(=O)N[C@@H](Cc1ccc(OCCc2nc(-c3ccccc3)oc2C)cc1)C(=O)O	5.46	5.59	–
Cc1oc(-c2ccccc2)nc1CCOc1ccc(C[C@@H](C(=O)O)N(C)C)cc1	6.39	6.07	–
Cc1oc(-c2ccccc2)nc1CCOc1ccc(C[C@@H](C(=O)O)N2CCCC2)cc1	6.41	6.44	–
Cc1oc(-c2ccccc2)nc1CCOc1ccc(C[C@@H](C(=O)O)n2cccc2)cc1	–	–	Reduction (Rattus norvegicus [4]): 24%; Increase (Rattus norvegicus [5]): 31%; pKi [6]: 5.60; pEC50 [7]: 5.42; Reduction (Rattus norvegicus [8]): 40%
Cc1oc(-c2ccccc2)nc1CCOc1ccc(C[C@H](Nc2ccccc2C(=O)c2ccccc2)C(=O)O)cc1 [FARGLITAZAR]	–	–	pKi [6]: 5.92
